Experimental data: patent publication US20050069948A1, “Screening method” (priority 2002, published 2005)

Assays:
[1] = test system: Egr-1 protein; assay: Egr-1 protein expression in rat glomerular mesangial cells after bFGF stimulus (Western blotting); assay type: cell-based; conditions: ODN 20 μM for 24 hours, one hour after bFGF (3 ng/ml) stimulus, relative value, control = 1, n = 2-3, Mean
Excerpt: (§1) Glomerular mesangial cells (passege 4-5) isolated and cultivated from a male SD rat with 4 weeks age were cultivated for 3 to 4 days in DMEM medium containing 20% fetal bovine serum to sub-confluence, and the medium was changed to DMEM containing a 0.2% bovine serum albumin and then the resulting material was subjected to serum starvation. Forty-eight hours after initiation of the serum starvation, Egr-1 AS-ODN (SEQ ID NO: 7) or a Control-ODN (the scrambled ODNs that were matched with the AS-ODN in size and the number of bases, both synthesized by BIOGNOSTIK Corp.) with a concentration of 20 μM was added to the medium and the resultant material was allowed to stand in a CO2 incubator for 24 hours. Thereafter the material was stimulated with a basic fibroblast growth factor (bFGF) (3 ng/ml), and then was reacted at 37° C. for 1 to 2 hours. A protein was extracted from the cell one hour after bFGF stimulus, and total RNA was extracted from a cell two hours after bFGF stimulus. […] The brightness accumulation value of the band thus detected was calculated by a CS Analyzer 1.00a (ATTO). Also, the mRNA expression level of the tissue factor was determined by making the primer and fluorescent probe on the basis of the mRNA sequence previously reported and by using ABI PRISM 7700 (Applied Biosystems) by means of the quantitative RT-PCR method.

[2] = test system: Glomerular mesangial cells; assay: Cytotoxicity by transfection in rat glomerular mesangial cells; assay type: cell-based; conditions: ODN 20 μM
[3] = test system: tissue factor mRNA; assay: Tissue factor mRNA expression in rat glomerular mesangial cells after bFGF stimulus (quantitative RT-PCR); assay type: cell-based; conditions: ODN 20 μM for 24 hours, two hours after bFGF (3 ng/ml) stimulus, relative value, control = 1, n = 2-3, Mean
Excerpt: as §1

[4] = test system: Egr-1 mRNA; assay: Egr-1 mRNA expression in rat glomerular mesangial cells after FCS or AII stimulus (RT-PCR); assay type: cell-based; conditions: 30 minutes after FCS (20%) stimulus; Candesartan 10^−5 M added 5 minutes before; relative value, before stimulus = 1; n = 3, Mean
Description: Glomerular mesangial cells ([…] 7) isolated and cultivated from a male Sprague-Dawley rat (SD rat, Japan Crea) of the age of 4 weeks were cultivated in DMEM medium containing 20% fetal calf serum (FCS) for 4 days, and then the cells were cultivated in DMEM containing 0.2% bovine serum albumin for 3 days. To the cells after cultivation, FCS (20%) or angiotensin II (AII) (10^-6M) was added, and then the resulting mixture was reacted at 37° C. for 30 minutes. The AII type I receptor antagonist Candesartan of 10^-5 M as the final concentration was added to the medium 5 minutes prior to the stimulation of FCS or AII. Thirty minutes after FCS or AII stimulus, total RNA was extracted. The primers and fluorescent probe were prepared on the basis of the mRNA sequence previously reported, and subsequently the level of Egr-1 mRNA expression was determined using ABI PRISM 7700 (Applied Biosystems) by the real time quantitative RT-PCR method.

[5] = test system: Egr-1, TGF-β1, PDGF-B, fibronectin and α1 (I) collagen mRNA in the kidney of Zucker Fatty Rats; assay: mRNA expression levels in the kidney of Zucker fatty rats (real time quantitative RT-PCR); assay type: in vivo, rat
Description: (§2) To the control group and the normal control group, i.e., male Zucker lean rats (ZL rat, Charles River Japan Inc.) with the same age, 0.5% methylcellulose 100 cP (Vehicle) was administered once per day everyday. Eight weeks after administration, urine was accumulated for 24 hours, and then the urinary albumin excretion was determined using A/G B Test Wako (Wako Pure Chemical Industries). Nine weeks after administration, the kidneys were collected and stored at −80° C., and subsequently the kidneys were crushed to extract the total RNA. The primers and fluorescent probe were prepared on the basis of the mRNA sequence previously reported, and then the amount of each of individual mRNAs was determined using ABI PRISM 7700 (Applied Biosystems) by the real time quantitative RT-PCR method.

[6] = biological target: human Egr-1 (human) (UniProt P18146); assay: plate assay: Egr-1 from HEK293 lysate captured on biotinylated double-stranded DNA with the Egr-1 binding sequence (SEQ ID NO: 10) on a streptavidin plate, detected with anti-Egr-1 polyclonal antibody and HRP anti-rabbit IgG
[7] = test system: male Zucker fatty rat; assay: Urinary albumin excretion in Zucker fatty rats; assay type: in vivo
Description: as §2

[8] = ZF rat, nine weeks after administration, relative value, ZL rat = 1, n = 8-9, Mean

Sequence of Egr-1 protein (P08154 whole entry): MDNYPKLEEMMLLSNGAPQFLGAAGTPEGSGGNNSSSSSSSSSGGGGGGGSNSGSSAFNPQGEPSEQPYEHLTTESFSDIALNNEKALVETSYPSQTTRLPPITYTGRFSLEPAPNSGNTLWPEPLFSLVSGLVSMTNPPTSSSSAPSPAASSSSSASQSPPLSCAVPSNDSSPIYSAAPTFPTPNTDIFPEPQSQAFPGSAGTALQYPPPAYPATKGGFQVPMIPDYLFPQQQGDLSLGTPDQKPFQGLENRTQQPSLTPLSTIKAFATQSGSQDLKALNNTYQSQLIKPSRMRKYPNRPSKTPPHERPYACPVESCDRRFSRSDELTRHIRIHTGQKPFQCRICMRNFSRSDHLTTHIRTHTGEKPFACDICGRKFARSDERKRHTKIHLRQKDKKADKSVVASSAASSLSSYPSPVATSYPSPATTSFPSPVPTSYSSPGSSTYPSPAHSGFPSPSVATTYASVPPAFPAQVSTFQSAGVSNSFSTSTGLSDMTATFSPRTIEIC
Sequence of human Egr-1 (human) (P18146 whole entry): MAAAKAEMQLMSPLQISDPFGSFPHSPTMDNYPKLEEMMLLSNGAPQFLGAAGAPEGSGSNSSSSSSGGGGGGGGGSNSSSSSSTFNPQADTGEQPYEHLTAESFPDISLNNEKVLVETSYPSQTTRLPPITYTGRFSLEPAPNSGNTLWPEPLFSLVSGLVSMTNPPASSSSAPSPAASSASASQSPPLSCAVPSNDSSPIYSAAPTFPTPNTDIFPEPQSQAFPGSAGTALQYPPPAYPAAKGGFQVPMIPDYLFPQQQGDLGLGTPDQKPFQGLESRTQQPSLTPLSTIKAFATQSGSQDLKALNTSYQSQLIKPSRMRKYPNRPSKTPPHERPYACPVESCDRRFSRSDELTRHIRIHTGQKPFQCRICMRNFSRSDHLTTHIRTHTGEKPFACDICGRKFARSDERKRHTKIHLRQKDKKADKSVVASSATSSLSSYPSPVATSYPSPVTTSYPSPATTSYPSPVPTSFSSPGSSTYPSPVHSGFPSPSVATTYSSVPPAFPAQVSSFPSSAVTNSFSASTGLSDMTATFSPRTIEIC

In the case of “AS-ODN: Egr-1 antisense oligodeoxynucleotide (SEQ ID NO: 7), synthesized by BIOGNOSTIK Corp. (antisense GCGGGGTGCAGGGGCACACT; DNA, backbone and methylation of C not given here)”, the Egr-1 protein expression [1] is reported as 2.0, the Egr-1 protein expression ([1]; listed as Egr-1 AS-ODN) is reported as “suppressed” and the Cytotoxicity by transfection [2] is reported as “not observed”. For the same compound, the “Tissue factor mRNA expression” value [3] was 1.1 and the “Tissue factor mRNA expression” value ([3]; listed as Egr-1 AS-ODN) was “almost completely suppressed”.

In the case of `CCOc1nc2cccc(C(=O)O)c2n1Cc1ccc(-c2ccccc2-c2nnn[nH]2)cc1` [Candesartan], the “Egr-1 mRNA expression level” value [4] is reported as 18.4, the “Egr-1 mRNA expression level in the kidney” value [5, 8] is reported as 1.3 and the “Fibronectin mRNA expression level in the kidney” value [5, 8] is reported as 1.1. For the same compound, the “PDGF-B mRNA expression level in the kidney” value [5, 8] was 1.0, the “TGF-β1 mRNA expression level in the kidney” value [5, 8] was 1.2 and the “α1 (I) collagen mRNA expression level in the kidney” value [5, 8] was 1.6.

In the case of “anti-Egr-1 antigen (rabbit, polyclonal antibody, SANTA CRUZ Corp., sc-189)”, the absorbance at 450 nm (absorbance (450 nm)) [6] is reported as 0.751.

For `CCOc1nc2cccc(C(=O)OC(C)OC(=O)OC3CCCCC3)c2n1Cc1ccc(-c2ccccc2-c2nnn[nH]2)cc1` (stereo not drawn) [Candesartan cilexetil], the “Increase in the level of Egr-1, TGF-β1, PDGF-B, fibronectin and α1(I) collagen mRNA expression in the kidney (in words)” value ([5]; Zucker fatty rat, oral administration once per day for 9 weeks) was “inhibits the increase”, the Urinary albumin excretion ([7]; ZF rat, orally once per day, eight weeks after administration, 24 hours urine, n = 8-9, Mean) was 61.7 mg/day and the “Increase in the urinary albumin excretion (in words)” value ([7]; Zucker fatty rat, oral administration once per day) was “inhibition of an increase”.
